The values that follow come from patent US20090326441A1, “Ultrasonic Enhanced Microneedles” (AGENCY FOR SCIENCE ,TECHNOLOGY AND RESEARCH, priority 2006, published 2009).

The data set in a line: Penetration of calcein through pig skin in Franz cell test device. The class given is in vitro ADME. To be noted: calcein solution 1 mmol, 0.523 mg/ml, receiving liquid PBS, 37° C., FIG. 9. The protocol:
An injection device according to the present invention was constructed as described above. Testing was performed using calcein on pig skin, using the apparatus in FIG. 8. The graph of FIG. 9 presents the results of testing in three different situations: without enhancers, with hollow microneedles and using the method of the present invention, using microneedles with ultrasonic enhancement. With reference to FIG. 8, test device 10 comprises injection device 20 which has been applied to skin sample 30. Pig skin sample 30 communicates with a receiving liquid in receiving chamber 40. Arm 50 is provided to chamber 40 for inserting or withdrawing the receiving liquid. Chamber 40 is located in Franz cell 60, which comprises a water bath 65 and inlet and outlet ports 70 and 75 respectively for maintaining the receiving liquid at a constant temperature. Sample chamber 80 is provided for holding a test sample. […]
In order to conduct the test using test device 10, calcein solution (1 mmol, 0.523 mg/ml) was placed in chamber 80 so as to supply the solution to device 20, and a receiving liquid (PBS: phosphate buffered saline) was loaded into chamber 40. […] The concentration of calcein in the receiving liquid was then monitored by withdrawing aliquots from arm 50 and analysing them. […]

Molecules are shown by their SMILES.

Regarding `O=C(O)CN(CC(=O)O)Cc1cc2c(cc1O)Oc1cc(O)c(CN(CC(=O)O)CC(=O)O)cc1C21OC(=O)c2ccccc21` [calcein], the “transport of calcein across the skin sample” value by setting is: (microneedles and ultrasound (20 kHz, 0.5 Wcm^−2), compared with microneedles alone) “enhanced”; (microneedles, no ultrasound, compared with no microneedles (without enhancers)) “improvement”.
